Consider seven compounds from patent US6664251B2, “Benzothiazine derivative” (Daiichi Suntory Pharma Co., Ltd., priority 1993, dated 2003).

For one test, the system named is α1 receptor. The test is described as follows: Anti-α1 action: tonic contraction of isolated thoracic aorta induced by norepinephrine. Particulars: tonic contraction induced by 10^−5 M norepinephrine (NE) taken as 100%, Hartley male guinea pig thoracic aorta; for Anti α1 action (% of Control) 10^−7 M: test drug 10^−7 M; for Anti α1 action (% of Control) 10^−8 M: test drug 10^−8 M. As to the method: The thoracic aorta of each Hartley male guinea pig (body weight: 300-500 g) was excised. A preparation cut in a helical form was suspended under 1 g load in a Magnus cylinder filled with the Tyrode solution which had been aerated with a gas mixture of 95% O2+5% CO2 and maintained at 37° C. Using an isometric transducer (“TB-612J”, manufactured by NIHON KOHDEN) and a pressure preamplifier (“AP-620G”, manufactured by NIHON KOHDEN), variations in tension were measured. The isometric tensions were recorded on a thermal pen-writing recorder (“WT-647G”, manufactured by NIHON KOHDEN).
Taking the tonic contraction induced by 10^−5 M norepinephrine (NE) as 100%, the percent contractions upon addition of each test drug at 10^−8 and 10^−7 M were determined as anti-α1 action.

Another test has as its system serotonin-2 receptor. The test is described as follows: Anti-serotonin action (anti-5-HT action): contraction of isolated superior mesenteric artery induced by serotonin. The conditions noted are these: contraction induced by 10^−5 M serotonin (5-HT) taken as 100%, Hartley male guinea pig superior mesenteric artery; for Anti 5-HT action (% of Control) 10^−7 M: test drug 10^−7 M; for Anti 5-HT action (% of Control) 10^−6 M: test drug 10^−6 M. On the procedure:
(1) Anti-Serotonin Action (Anti-5-HT Action)
A preparation cut in a helical form was suspended under 0.3 g load in a Magnus cylinder filled with the Tyrode solution which had been aerated with a gas mixture of 95% O2+5% CO2 and maintained at 37° C. Using an isometric transducer (“UL-10”, manufactured by SHINKOH K.K.) and a pressure preamplifier (“DSA-605A”, manufactured by SHINKOH K.K.), variations in tension were measured. The isometric tensions were recorded on a pen-writing recorder (“VP-6537A”, manufactured by NATIONAL K.K.). Taking the contraction induced by 10^−5 M serotonin (5-HT) as 100%, the percent contractions in the presence of each test drug at 10^−7 and 10^−6 M were determined as anti-5-HT action.

Take `COc1cccc2c1C1(CN(CCCN3CCN(c4ccc(F)cc4)CC3)S2(=O)=O)OCCO1` [Compound No. 110, 2-[3-[4-(4-fluorophenyl)piperazin-1-yl]propyl]-5-methoxy-3,4-dihydro-2H-1,2-benzothiazin-4-one 1,1-dioxide ethylene acetal]: in the test with α1 receptor, the “Anti α1 action (% of Control) 10^−7 M” value is 81.1 % of Control and the “Anti α1 action (% of Control) 10^−8 M” value is on record as 100 % of Control. The “Anti 5-HT action (% of Control) 10^−7 M” value in the test on serotonin-2 receptor is recorded as 5.6 % of Control.
Regarding `O=S1(=O)c2ccccc2C2(CN1CCCN1CCN(c3ccccn3)CC1)OCCO2` [Compound No. 46, 2-[3-[4-(2-pyridyl)piperazin-1-yl]-propyl]-3,4-dihydro-2H-1,2-benzothiazin-4-one 1,1-dioxide ethylene acetal], in the test with α1 receptor, the “Anti α1 action (% of Control) 10^−7 M” value is reported as 97.4 % of Control and the “Anti α1 action (% of Control) 10^−8 M” value was 100 % of Control. For the same compound, in the test with serotonin-2 receptor, the “Anti 5-HT action (% of Control) 10^−6 M” value is 5.5 % of Control and the “Anti 5-HT action (% of Control) 10^−7 M” value is recorded as 39.8 % of Control.
Turning to `O=S1(=O)c2ccccc2C2(CN1CCCN1CCN(c3ccc(O)cc3)CC1)OCCO2` [Compound No. 37, 2-[3-[4-(4-hydroxyphenyl)piperazin-1-yl]propyl]-3,4-dihydro-2H-1,2-benzothiazin-4-one 1,1-dioxide ethylene acetal], in the test on α1 receptor, the “Anti α1 action (% of Control) 10^−7 M” value is reported as 96.2 % of Control and the “Anti α1 action (% of Control) 10^−8 M” value is given as 100 % of Control. Moreover, in the test with serotonin-2 receptor, the “Anti 5-HT action (% of Control) 10^−6 M” value is listed as 8.3 % of Control and the “Anti 5-HT action (% of Control) 10^−7 M” value is reported as 15.7 % of Control.
Taken in the same sequence, the figures for `COC1(OC)CN(CCCN2CCN(c3ccc(F)cc3)CC2)S(=O)(=O)c2ccccc21` [Compound No. 55, 2-[3-[4-(4-fluorophenyl)piperazin-1-yl]propyl]-4,4-dimethoxy-3,4-dihydro-2H-1,2-benzothiazine 1,1-dioxide] were 89.2 % of Control, 100 % of Control, 7.4 % of Control and 23.4 % of Control.
Take `O=C(c1ccc(F)cc1)C1CCN(CCCN2CC(O)c3ccccc3S2(=O)=O)CC1` (stereo not drawn) [Compound No. 76, 2-[3-[4-(4-fluorobenzoyl)piperidino]-propyl]-4-hydroxy-3,4-dihydro-2H-1,2-benzothiazine 1,1-dioxide]: in the test on α1 receptor, the “Anti α1 action (% of Control) 10^−7 M” value is given as 88.2 % of Control and the “Anti α1 action (% of Control) 10^−8 M” value is given as 100 % of Control. In addition, in the test on serotonin-2 receptor, the “Anti 5-HT action (% of Control) 10^−6 M” value is reported as 21.7 % of Control and the “Anti 5-HT action (% of Control) 10^−7 M” value is 53.9 % of Control.
With `COc1ccc2c(c1)C1(CN(CCCN3CCC(C(=O)c4ccc(F)cc4)CC3)S2(=O)=O)OCCO1` [Compound No. 116, 2-[3-[4-(4-fluorobenzoyl)piperidino]-propyl]-6-methoxy-3,4-dihydro-2H-1,2-benzothiazin-4-one 1,1-dioxide ethylene acetal], in the test on α1 receptor, the “Anti α1 action (% of Control) 10^−7 M” value was 88.3 % of Control and the “Anti α1 action (% of Control) 10^−8 M” value was 100.7 % of Control. In the test with serotonin-2 receptor, the “Anti 5-HT action (% of Control) 10^−6 M” value was 13.9 % of Control and the “Anti 5-HT action (% of Control) 10^−7 M” value is 40.2 % of Control.
Consider `O=S1(=O)c2ccccc2C2(CN1CCCN1CCN(c3ccc(F)cc3)CC1)OCCO2` [Compound No. 62, 2-[3-[4-(4-fluorophenyl)piperazin-1-yl]propyl]-3,4-dihydro-2H-1,2-benzothiazin-4-one 1,1-dioxide ethylene acetal], for which, in the test on α1 receptor, the “Anti α1 action (% of Control) 10^−7 M” value was 53.1 % of Control and the “Anti α1 action (% of Control) 10^−8 M” value was 98.1 % of Control. In the test on serotonin-2 receptor, the “Anti 5-HT action (% of Control) 10^−6 M” value was 3.3 % of Control and the “Anti 5-HT action (% of Control) 10^−7 M” value is recorded as 14.1 % of Control.
